{
  "source": "the supplement of paper PMC4862054",
  "assay_in_all_cases": "normalised viability (% of control), CellTiter-Blue; higher = more viable cells (about 100 = DMSO control)",
  "conditions_in_all_cases": "incubation time: 72 h",
  "key": {"[1]": {"tested_on": "HDQ-P1", "description": "(§1)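 DSRT, CellTiter-Blue viability, 72 h incubation. Signal is normalised to DMSO and benzethonium chloride controls. Value is the normalised response at dose 9.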"}, "[2]": {"tested_on": "DU-4475", "description": "as §1"}, "[3]": {"tested_on": "MDA-MB-453", "description": "as §1"}, "[4]": {"tested_on": "CAL-148", "description": "as §1"}, "[5]": {"tested_on": "CAL-85-1", "description": "as §1"}, "[6]": {"tested_on": "CAL-51", "description": "as §1"}},
  "note": "Several values for one entry are separate records, joined by “and”; a condition that tells them apart may be missing. Equal values may be shown once.",
  "data": [
    {"smiles": "COc1cc2c(cc1O)CC[C@@H]1[C@@H]2CC[C@]2(C)[C@@H](O)CC[C@@H]12", "note": "[2-methoxyestradiol] (10000 nM)", "values": [
      {"measurement": "normalised viability", "setting": "[1]", "result": 47.3, "unit": "%"},
      {"measurement": "normalised viability", "setting": "[2]", "result": 28.7, "unit": "%"},
      {"measurement": "normalised viability", "setting": "[3]", "result": 36.6, "unit": "%"},
      {"measurement": "normalised viability", "setting": "[4]", "result": 58.1, "unit": "%"},
      {"measurement": "normalised viability", "setting": "[5]", "result": 57.5, "unit": "%"},
      {"measurement": "normalised viability", "setting": "[6]", "result": 20.6, "unit": "%"}
    ]},
    {"smiles": "Cc1sc2c(c1C)C(c1ccc(Cl)cc1)=N[C@@H](CC(=O)OC(C)(C)C)c1nnc(C)n1-2", "note": "[(+)JQ1] (10000 nM)", "values": [
      {"measurement": "normalised viability", "setting": "[1]", "result": 108, "unit": "%"},
      {"measurement": "normalised viability", "setting": "[2]", "result": 1.08, "unit": "%"},
      {"measurement": "normalised viability", "setting": "[3]", "result": 18.3, "unit": "%"},
      {"measurement": "normalised viability", "setting": "[4]", "result": 27.6, "unit": "%"},
      {"measurement": "normalised viability", "setting": "[5]", "result": 44.4, "unit": "%"},
      {"measurement": "normalised viability", "setting": "[6]", "result": 68.3, "unit": "%"}
    ]},
    {"smiles": "Oc1ncnc2[nH]ncc12", "note": "[Allopurinol] (10000 nM)", "values": [
      {"measurement": "normalised viability", "setting": "[1]", "result": 99.2, "unit": "%"},
      {"measurement": "normalised viability", "setting": "[2]", "result": 115, "unit": "%"},
      {"measurement": "normalised viability", "setting": "[3]", "result": 108, "unit": "%"},
      {"measurement": "normalised viability", "setting": "[4]", "result": 118, "unit": "%"},
      {"measurement": "normalised viability", "setting": "[5]", "result": 109, "unit": "%"},
      {"measurement": "normalised viability", "setting": "[6]", "result": 92.5, "unit": "%"}
    ]},
    {"smiles": "O=C1CN2Cc3c(ccc(Cl)c3Cl)N=C2N1", "note": "[Anagrelide] (10000 nM)", "values": [
      {"measurement": "normalised viability", "setting": "[1]", "result": 118, "unit": "%"},
      {"measurement": "normalised viability", "setting": "[2]", "result": 108, "unit": "%"},
      {"measurement": "normalised viability", "setting": "[3]", "result": 90.9, "unit": "%"},
      {"measurement": "normalised viability", "setting": "[4]", "result": 115, "unit": "%"},
      {"measurement": "normalised viability", "setting": "[5]", "result": 89.8, "unit": "%"},
      {"measurement": "normalised viability", "setting": "[6]", "result": 83.8, "unit": "%"}
    ]},
    {"smiles": "Nc1ncn([C@@H]2O[C@H](CO)[C@@H](O)[C@H]2O)c(=O)n1", "note": "[Azacitidine] (10000 nM)", "values": [
      {"measurement": "normalised viability", "setting": "[1]", "result": 68.4, "unit": "%"},
      {"measurement": "normalised viability", "setting": "[2]", "result": 77.7, "unit": "%"},
      {"measurement": "normalised viability", "setting": "[3]", "result": 82, "unit": "%"},
      {"measurement": "normalised viability", "setting": "[4]", "result": 82.8, "unit": "%"},
      {"measurement": "normalised viability", "setting": "[5]", "result": 102, "unit": "%"},
      {"measurement": "normalised viability", "setting": "[6]", "result": 102, "unit": "%"}
    ]},
    {"smiles": "O=NN(CCCl)C(=O)NCCCl", "note": "[Carmustine] (10000 nM)", "values": [
      {"measurement": "normalised viability", "setting": "[1]", "result": 114, "unit": "%"},
      {"measurement": "normalised viability", "setting": "[2]", "result": 105, "unit": "%"},
      {"measurement": "normalised viability", "setting": "[3]", "result": 115, "unit": "%"},
      {"measurement": "normalised viability", "setting": "[4]", "result": 109, "unit": "%"},
      {"measurement": "normalised viability", "setting": "[5]", "result": 95.6, "unit": "%"},
      {"measurement": "normalised viability", "setting": "[6]", "result": 98.2, "unit": "%"}
    ]},
    {"smiles": "CC1=C2C[C@H]3[C@@H](CC=C4C[C@@H](O)CC[C@@]43C)[C@@H]2CC[C@]12O[C@@H]1C[C@H](C)CN[C@H]1[C@H]2C", "note": "[Cyclopamine] (10000 nM)", "values": [
      {"measurement": "normalised viability", "setting": "[1]", "result": 148, "unit": "%"},
      {"measurement": "normalised viability", "setting": "[2]", "result": 107, "unit": "%"},
      {"measurement": "normalised viability", "setting": "[3]", "result": 119, "unit": "%"},
      {"measurement": "normalised viability", "setting": "[4]", "result": 116, "unit": "%"},
      {"measurement": "normalised viability", "setting": "[5]", "result": 94.8, "unit": "%"},
      {"measurement": "normalised viability", "setting": "[6]", "result": 102, "unit": "%"}
    ]},
    {"smiles": "CC(=O)O[C@@]12CO[C@@H]1C[C@H](O)[C@@]1(C)C(=O)[C@H](O)C3=C(C)[C@@H](OC(=O)[C@H](O)[C@@H](NC(=O)OC(C)(C)C)c4ccccc4)C[C@@](O)([C@@H](OC(=O)c4ccccc4)[C@H]21)C3(C)C", "note": "[Docetaxel] (1000 nM)", "values": [
      {"measurement": "normalised viability", "setting": "[1]", "result": "51.3% and 42.4%"},
      {"measurement": "normalised viability", "setting": "[2]", "result": "11.7% and 10.5%"},
      {"measurement": "normalised viability", "setting": "[3]", "result": "23.1% and 24.4%"},
      {"measurement": "normalised viability", "setting": "[4]", "result": "23.1% and 21.2%"},
      {"measurement": "normalised viability", "setting": "[5]", "result": "32.1% and 32.3%"},
      {"measurement": "normalised viability", "setting": "[6]", "result": "16.2% and 12.2%"}
    ]},
    {"smiles": "CC1(C)CNc2cc(NC(=O)c3cccnc3NCc3ccncc3)ccc21", "note": "[Motesanib] (10000 nM)", "values": [
      {"measurement": "normalised viability", "setting": "[1]", "result": 92.2, "unit": "%"},
      {"measurement": "normalised viability", "setting": "[2]", "result": 88.6, "unit": "%"},
      {"measurement": "normalised viability", "setting": "[3]", "result": 69.4, "unit": "%"},
      {"measurement": "normalised viability", "setting": "[4]", "result": 91.8, "unit": "%"},
      {"measurement": "normalised viability", "setting": "[5]", "result": 78.2, "unit": "%"},
      {"measurement": "normalised viability", "setting": "[6]", "result": 97.2, "unit": "%"}
    ]},
    {"smiles": "CC[C@@H]1C(=O)OC[C@@H]1Cc1cncn1C", "note": "[Pilocarpine] (40000 nM)", "values": [
      {"measurement": "normalised viability", "setting": "[1]", "result": 135, "unit": "%"},
      {"measurement": "normalised viability", "setting": "[2]", "result": 68.7, "unit": "%"},
      {"measurement": "normalised viability", "setting": "[3]", "result": 43.7, "unit": "%"},
      {"measurement": "normalised viability", "setting": "[4]", "result": 73.2, "unit": "%"},
      {"measurement": "normalised viability", "setting": "[5]", "result": 64.4, "unit": "%"},
      {"measurement": "normalised viability", "setting": "[6]", "result": 84.5, "unit": "%"}
    ]},
    {"smiles": "CC(C)(C)c1cnc(CSc2cnc(NC(=O)C3CCNCC3)s2)o1", "note": "[SNS-032] (10000 nM)", "values": [
      {"measurement": "normalised viability", "setting": "[1]", "result": 12.7, "unit": "%"},
      {"measurement": "normalised viability", "setting": "[2]", "result": -0.36, "unit": "%"},
      {"measurement": "normalised viability", "setting": "[3]", "result": 18.6, "unit": "%"},
      {"measurement": "normalised viability", "setting": "[4]", "result": 21.8, "unit": "%"},
      {"measurement": "normalised viability", "setting": "[5]", "result": 2.06, "unit": "%"},
      {"measurement": "normalised viability", "setting": "[6]", "result": 4.67, "unit": "%"}
    ]},
    {"smiles": "Cn1cnc2c(F)c(Nc3ccc(Br)cc3Cl)c(C(=O)NOCCO)cc21", "note": "[Selumetinib] (10000 nM)", "values": [
      {"measurement": "normalised viability", "setting": "[1]", "result": 65.7, "unit": "%"},
      {"measurement": "normalised viability", "setting": "[2]", "result": 0.33, "unit": "%"},
      {"measurement": "normalised viability", "setting": "[3]", "result": 75.8, "unit": "%"},
      {"measurement": "normalised viability", "setting": "[4]", "result": 89.9, "unit": "%"},
      {"measurement": "normalised viability", "setting": "[5]", "result": 49.6, "unit": "%"},
      {"measurement": "normalised viability", "setting": "[6]", "result": 80.3, "unit": "%"}
    ]},
    {"smiles": "Nc1nc2[nH]cnc2c(=S)[nH]1", "note": "[Thioguanine] (10000 nM)", "values": [
      {"measurement": "normalised viability", "setting": "[1]", "result": 58.5, "unit": "%"},
      {"measurement": "normalised viability", "setting": "[2]", "result": 73.8, "unit": "%"},
      {"measurement": "normalised viability", "setting": "[3]", "result": 73.1, "unit": "%"},
      {"measurement": "normalised viability", "setting": "[4]", "result": 42, "unit": "%"},
      {"measurement": "normalised viability", "setting": "[5]", "result": 61.8, "unit": "%"},
      {"measurement": "normalised viability", "setting": "[6]", "result": 54.2, "unit": "%"}
    ]}
  ]
}
